Experimental findings from patent US20240228434A1, “PRODRUGS OF KV7 CHANNEL OPENERS” (Xyzagen, Inc., priority 2021, published 2024) are described below.

A short description of data set [1]: In vitro mouse plasma stability at 37° C. Type of data set: in vitro ADME. Conditions: 1000 ng/mL. The procedure:
(§1) Plasma was collected by the biomaterial vendor and kept frozen at −20° C.
(§2) The samples were analyzed by HPLC separation and mass spectrometry detection for prodrug amount, relative to a baseline time 0 control sample. Triplicate samples were generated at each time point and the peak area response was averaged and converted to a percent of baseline control.

A short description of data set [2]: Pharmacokinetics of ezogabine prodrugs in rat (IV, IM, PO). Particulars: rat, in vivo, po. The procedure: Blood was diluted by 10% with these stabilizers.
Extraction of the molecules was conducted by taking a 50 uL aliquot of plasma and adding 200 uL of acetonitrile containing 200 ng/mL tolbutamide as the internal standard. Samples were precipitated in a 96 well plate, centrifuges and an aliquot transferred to a new plate, dried down under heat and nitrogen and then reconstituted in the initial mobile phase conditions of the LC-MS/MS method. […] A standard curve was prepared from 5000 ng/mL to 1 ng/mL for each analyte. Concentration data from the bioanalytical run was analyzed by Phoenix Winnonlin version 8 for noncompartmental PK analysis, plotting of concentration time curves and tabulation of PK parameters.
150 uL of blood were collected at predesignated time points. At completion of the study animals were asphyxiated by carbon dioxide gas and exsanguinated for euthanasia.

Data set [3] can be described thus: In vitro rat plasma stability at 37° C. Type of data set: in vitro ADME. Particulars: at 23 h. The protocol: as §1, §2
Data set [4] is described as follows: Solvent solubility assessment by visual inspection. It is filed as physicochemical. Particulars: 0.1N Na2HPO4. The protocol:
Compounds were weighed and placed into a 4 dram vials and solvents were added to the target concentration. Compounds were vortex and visually inspected for particulates and considered soluble if clear upon visual inspection with and without magnification. Solubility was reported as either greater than (>) or less than (<) from the prepared concentration. […] It was evaluated at 10 mg/mL in 0.1 N NaCl and was freely soluble. It was evaluate at 1 mg/mL in 0.1 N NaOH and 0.1 N Na2HPO4 and was freely soluble. In ethanol and methanol it was freely soluble at a concentration of 75 mg/mL. […] It was freely soluble at 75 mg/mL in methanol and ethanol. It was soluble at 1 mg/mL in 1N HCl.

A short description of data set [5]: Stability in solvents on the benchtop exposed to light, HPLC-UV 230 nm. It is filed as physicochemical. Conditions: all test conditions except 0.1N NaOH, over 4 days. The protocol: Compounds in solvent were left on the benchtop exposed to light for up to 7 days since it is known that Compound 1 will degrade with light within 3-7 days.
Stability was assessed by taking an aliquot from the solubility vials at each test day. A single replicate was injected for each test condition.
Samples were injected onto an HPLC system with an aqueous mobile phase and acetonitrile organic phase and compounds were separated on a C8 50×2 mm column. Wavelength 230 nm was monitored for absorption and integrated for peak area while the mass spectrometer was used to confirm mass. Samples were tested on Day 1 and on subsequent days through Day 7.

A short description of data set [6]: Acid and organic solution stability, HPLC-UV 250 nm. Conditions: 5 mg/mL; for Degradation / conversion to ezogabine in solution (summary): up to 3 weeks. The protocol:
An HPLC-UV Vis method was developed using 0.1% Formic acid in water as mobile phase A and 0.1% Formic acid in acetonitrile as mobile Phase B. A gradient method was developed ramping from 10% A to 90% B over 8 minutes and then returning to 10% A at 8.5 minutes on a 4.6×50 mm Zorbax C-18 column. Injections of 10 uL of stability solutions were injected for analyte detection.
[…] Aliquots were collected at serial time points and then diluted to a nominal concentration of 100 ug/mL for injection to the HPLC and 250 nm monitored by the diode array detector. Data at approximately 10 days is presented.
Aliquots were collected at serial time points and then diluted to a nominal concentration of 100 ug/mL for injection to the HPLC and 250 nm monitored by the diode array detector.
(§3) It was also evaluated at 2 N HCl at 37° C. Aliquots were collected at serial time points and then diluted to a nominal concentration of 100 ug/mL for injection to the HPLC and 250 nm monitored by the diode array detector.
as §3, §3, §3

Data set [7] has as its system MES induced seizures. Nature of the data set: SD rat MES test after IM Compound 4. Conditions: IM 75 mg/kg. It is filed as in vivo.
Protocol: All treatments were at 0.083, 0.25, 0.5, 1, 2, 4, and 8 hours prior to the administration of MES test, where 6 seconds where 6 seconds without a seizure was considered protected.
Data set [8] deals with flicks/licks after intraplantar 5% formalin. In words: Formalin inflammatory pain model. Type of data set: in vivo, CD-1 mouse. Conditions: SC 100 mg/kg in water 30 minutes before formalin; both phases (0-10 min, 15-40 min). The procedure:
Compound 4 was assessed in the rat formalin inflammatory model. The number of flicks/licks of a male CD-1 mouse in the acute phase 0-10 minute and the inflammatory phase from 15-40 min after intraplantar administration of 50 μL of 5% formalin was recorded. […] Data is presented over the duration of the observation periods in 2 minute bins.

A short description of data set [9]: Rat PK at equimolar dose to Ezogabine (20 mg/kg) in 0.5% methylcellulose. Particulars: for Exposure of ezogabine (dose normalized AUC) compared with ezogabine itself: rats, equimolar dose to Ezogabine 20 mg/kg. The protocol:
(§4) Blood samples were collected at the same time points over 24 hours to generate a concentration time profile. Two male rats were dosed per group. Plasma samples were analyzed by LC/MS/MS and the resulting concentration time profiles and PK parameters are provided.
as §4, §4

Data set [10] in a line: Drug concentration in plasma and brain after Compound 28 IP. Particulars: CF-1 mice, 30 minutes.
Data set [11] has as its system MES induced seizures. In words: Maximal electroshock assay of Compound 28, IP. Type of data set: in vivo, CF-1 mice. Conditions: for Animals protected from MES induced seizures: 30 minutes after administration. (Protection in the maximal electroshock model is a classic sign of anticonvulsant action.)
Data set [12] can be described thus: Plasma and brain concentration after oral Compound 29. Conditions: oral 30 mg/kg Compound 29, 0.25, 0.5 and 1 h. An excerpt:
(§5) Each male CF-1 mouse provided one data point in the MES assay and one data point in the concentration analysis. There were 8 mice per time point.

For data set [13], the system named is MES induced seizures. Nature of the data set: Mouse maximal electroshock (MES) assay of Compound 29, oral. Type of data set: in vivo, CF-1 mouse. Conditions: oral 30 mg/kg; 0.25, 0.5 and 1 h.
Source text: as §5

[14] abbreviates: male jugular vein cannulated rats, dose equimolar to Ezogabine 20 mg/kg, 0.5% methylcellulose in water, 24 hours, analyte the dosed prodrug.
The mark [15] stands for this setting: male jugular vein cannulated rats, dose equimolar to Ezogabine 20 mg/kg, 0.5% methylcellulose in water, analyte the dosed prodrug.

`CCOC(=O)Nc1ccc(NCc2ccc(F)cc2)cc1NC(=O)[C@@H](N)CCCCN` [Compound 4]: the Plasma stability result in [1] was “degrades by 6 hours”. Moreover, the “Exposure of the prodrug itself in systemic circulation” value in data set [2] is “slightly more detectable”. Besides, in [3], the Percent remaining entry is reported as “below 50%”. In data set [4], this compound displayed a Solubility greater than 1000 µg/mL. The Stability in solvent result in data set [5] is recorded as “stable”. Also, the “Degradation / conversion to ezogabine in solution (summary)” value (“Degradation / conversion to ezogabine” below) in data set [6] is on record as “very little degradation to ezogabine”. For the same compound, the “Ezogabine Area” value amounted to 0 mAU in data set [6] (0.1N HCl, room temp., normal light, 269 h); 0 mAU in data set [6] (1N HCl, room temp., normal light, 269 h); 167 mAU in [6] (2N HCl 37 C., 436 h); 38 mAU in data set [6] (2N HCl, room temp., normal light, 269 h); 0 mAU in data set [6] (Methanol, room temp., normal light, 437 h); 0 mAU in [6] (PBS, room temp., normal light, 435 h). The “Appearance of the stability solution” value in [6] (18 days) is “remained clear and colorless through Day 18”. Further, the figures for the “Protection from MES induced seizures” value in data set [7] (at 1 h post dose) and in data set [7] (from 2 through 8 hours post dose) were “almost fully protected” and “fully protected”, respectively. Moreover, the “Reduction in behavioral response (flicks/licks) compared to vehicle” value in data set [8] is listed as 50%. The AUClast/D in data set [9] (setting [14]) is 6.26 ng·h/mL/mg/kg. Further, in [9] (setting [15]), the Cmax/D came to 2.34 ng/mL/mg/kg. For the same compound, the “Exposure of ezogabine (dose normalized AUC) compared with ezogabine itself” value in data set [9] is recorded as “similar”.

In the case of `CCOC(=O)Nc1ccc(NCc2ccc(F)cc2)cc1NC(=O)C[C@@H](CN)CC(C)C` [Compound 28], the “Concentration of the prodrug compared with ezogabine” value in [10] is on record as “present at higher concentrations than ezogabine”. Also, the “Degradation / conversion to ezogabine” value in data set [6] is “degradation to ezogabine with increasing strength of the acidic solution”. In addition, the “Ezogabine Area” value in data set [6] (0.1N HCl, room temp., normal light, 440 h) worked out at 0 mAU; in data set [6] (1N HCl, room temp., normal light, 440 h), 568 mAU; in data set [6] (2N HCl 37 C., 440 h), 3593 mAU; in data set [6] (2N HCl, room temp., normal light, 440 h) it was 1462 mAU; in data set [6] (Acetonitrile, room temp., normal light, 440 h) it was 248 mAU; in [6] (Methanol, room temp., normal light, 440 h) it was 0 mAU. For the same compound, the “Appearance of the stability solution” value in data set [6] (11 days) is “clear and colorless through Day 11”. For the same compound, the “% Remaining” value in data set [6] (440 h) amounted to 92.0%. The “Animals protected from MES induced seizures” value was 1 of 9 in data set [11] (IP 12 mg/kg) and 3 of 9 in data set [11] (IP 24 mg/kg). The “Protection against MES induced seizures, dose response” value in data set [11] (IP 1.5, 3, 6, 12 and 24 mg/kg) is listed as “None of the doses showed complete protection”. The AUClast/D in [9] (setting [14]) came to 83.0 ng·h/mL/mg/kg. In data set [9] (setting [15]), the Cmax/D came to 9.31 ng/mL/mg/kg. Further, the “Exposure of ezogabine (dose normalized AUC) compared with ezogabine itself” value in data set [9] is reported as “lower exposure”.

With `CCNC(=O)CC[C@H](N)C(=O)Nc1cc(NCc2ccc(F)cc2)ccc1NC(=O)OCC.Cl` [Compound 29], in data set [12], the Exposure of ezogabine entry is “very high in plasma and was present in brain”. In addition, the “Degradation / conversion to ezogabine” value in data set [6] was “degradation under acidic conditions and also conversion to ezogabine”. Besides, the “Ezogabine Area” value was 0 mAU in data set [6] (0.1N HCl, room temp., normal light, 441 h); 1241 mAU in data set [6] (1N HCl, room temp., normal light, 441 h); 1755 mAU in [6] (2N HCl 37 C., 441 h); 1659 mAU in data set [6] (2N HCl, room temp., normal light, 441 h); 0 mAU in data set [6] (Methanol, room temp., normal light, 441 h). Further, in data set [13], the “Pharmacological response in MES over time” value is listed as “reduced in tandem to the decrease in brain concentrations”. Moreover, the AUClast in [9] (setting [14]) was found to be 6110 ng·h/mL. The Cmax/D in data set [9] (male jugular vein cannulated rats, dose equimolar to Ezogabine 20 mg/kg, 0.5% methylcellulose in water, analyte Ezogabine) is 23.3 ng/mL/mg/kg; in [9] (setting [15]) it was 44.2 ng/mL/mg/kg. In addition, the Cmax in data set [9] (setting [15]) is 883 ng/mL. Moreover, the Tmax in data set [9] (setting [15]) stood at 9.6 min. Also, in data set [9], the “Exposure of ezogabine (dose normalized AUC) compared with ezogabine itself” value is “similar”.

In general, Solubility refers to the dissolved amount per volume that the medium holds. Read a high Solubility as a readily soluble substance. As a reminder, the Cmax is the maximum level reached in the sampled fluid or tissue. In general, Tmax refers to the time from dosing to the highest level.
